Data set [1] concerns the target T1, human PPARα (hPPARα) (Homo sapiens, UniProt Q07869).
T1 sequence (Q07869 1-468): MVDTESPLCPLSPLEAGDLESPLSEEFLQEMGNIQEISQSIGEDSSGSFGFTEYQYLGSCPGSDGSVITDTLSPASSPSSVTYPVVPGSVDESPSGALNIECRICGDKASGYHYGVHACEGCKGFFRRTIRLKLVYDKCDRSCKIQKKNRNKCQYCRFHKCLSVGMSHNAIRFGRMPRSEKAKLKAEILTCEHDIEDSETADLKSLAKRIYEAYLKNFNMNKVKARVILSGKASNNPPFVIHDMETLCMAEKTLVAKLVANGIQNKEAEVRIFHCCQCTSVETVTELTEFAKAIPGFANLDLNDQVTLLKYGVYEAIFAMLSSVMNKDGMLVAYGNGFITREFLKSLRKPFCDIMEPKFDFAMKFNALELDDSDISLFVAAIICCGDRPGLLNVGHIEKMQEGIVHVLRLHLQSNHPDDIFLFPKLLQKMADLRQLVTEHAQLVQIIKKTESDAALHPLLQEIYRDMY

Data set [2] addresses human ether-á-go-go (hERG) potassium channel (Homo sapiens, UniProt Q12809). In words: hERG automated whole cell patch-clamp. The data set is classed as cell-based. The note with it: tested at 0.1, 1 and 10 μM; ≥50% inhibition at 10 μM flagged as toxic.
In data set [3] the target is T2, Ligand Binding Domain of PPARα (Homo sapiens, UniProt Q07869).
T2 sequence (Q07869 239-466 limits assumed): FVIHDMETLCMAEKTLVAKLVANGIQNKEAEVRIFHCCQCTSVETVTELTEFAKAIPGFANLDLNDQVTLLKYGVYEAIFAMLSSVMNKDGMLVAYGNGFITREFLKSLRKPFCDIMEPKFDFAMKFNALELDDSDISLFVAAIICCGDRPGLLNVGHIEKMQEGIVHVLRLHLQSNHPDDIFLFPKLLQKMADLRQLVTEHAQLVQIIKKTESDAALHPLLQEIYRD
In words: Isothermal titration calorimetry. The note with it: 4b vs 4a; 4u vs 4b.

The nature of data set [4]: Stability in rat liver microsomes. In kind it is in vitro ADME. Conditions: compared with 4a (A91). For orientation: Liver microsomes are a subcellular fraction often used to study metabolism.
In data set [5] the test system is cytochrome P450 isoforms (1A, 2C9, 2C19, 2D6, and 3A). In words: Time-dependent CYP inhibition in pooled human liver microsomes. The data set is classed as in vitro ADME. Conditions: 10 μM, pre-incubation ± NADPH.
Data set [6] in a line: Stability in human liver microsomes. The note with it: compared with 4a (A91). In kind it is in vitro ADME.
Data set [7] deals with T1, human PPARα (hPPARα). In words: cell-based. The note with it: EC50 hPPARα (cellular potency), luciferase reporter. (In general: A reporter such as luciferase makes a cellular process visible.)
Another data set deals with T3, PPARα (Homo sapiens, UniProt Q07869).
T3 sequence (Q07869 1-468): T1 sequence (Q07869 1-468)
The data set can be described thus: Cellular thermal shift assay. The data set is classed as cell-based. The note with it: MIO-M1 cells, 45.5 °C.

Data set [8] deals with retinal vascular leakage in diabetic rats. The data set can be described thus: STZ-induced diabetic rat model, retinal vascular permeability. The data set is classed as in vivo, Brown Norway rat. The note with it: daily i.p. for 28 days.

The structures appear in SMILES notation.

human ether-á-go-go (hERG) potassium channel, sequence (Q12809 whole entry, the tested form may be a part): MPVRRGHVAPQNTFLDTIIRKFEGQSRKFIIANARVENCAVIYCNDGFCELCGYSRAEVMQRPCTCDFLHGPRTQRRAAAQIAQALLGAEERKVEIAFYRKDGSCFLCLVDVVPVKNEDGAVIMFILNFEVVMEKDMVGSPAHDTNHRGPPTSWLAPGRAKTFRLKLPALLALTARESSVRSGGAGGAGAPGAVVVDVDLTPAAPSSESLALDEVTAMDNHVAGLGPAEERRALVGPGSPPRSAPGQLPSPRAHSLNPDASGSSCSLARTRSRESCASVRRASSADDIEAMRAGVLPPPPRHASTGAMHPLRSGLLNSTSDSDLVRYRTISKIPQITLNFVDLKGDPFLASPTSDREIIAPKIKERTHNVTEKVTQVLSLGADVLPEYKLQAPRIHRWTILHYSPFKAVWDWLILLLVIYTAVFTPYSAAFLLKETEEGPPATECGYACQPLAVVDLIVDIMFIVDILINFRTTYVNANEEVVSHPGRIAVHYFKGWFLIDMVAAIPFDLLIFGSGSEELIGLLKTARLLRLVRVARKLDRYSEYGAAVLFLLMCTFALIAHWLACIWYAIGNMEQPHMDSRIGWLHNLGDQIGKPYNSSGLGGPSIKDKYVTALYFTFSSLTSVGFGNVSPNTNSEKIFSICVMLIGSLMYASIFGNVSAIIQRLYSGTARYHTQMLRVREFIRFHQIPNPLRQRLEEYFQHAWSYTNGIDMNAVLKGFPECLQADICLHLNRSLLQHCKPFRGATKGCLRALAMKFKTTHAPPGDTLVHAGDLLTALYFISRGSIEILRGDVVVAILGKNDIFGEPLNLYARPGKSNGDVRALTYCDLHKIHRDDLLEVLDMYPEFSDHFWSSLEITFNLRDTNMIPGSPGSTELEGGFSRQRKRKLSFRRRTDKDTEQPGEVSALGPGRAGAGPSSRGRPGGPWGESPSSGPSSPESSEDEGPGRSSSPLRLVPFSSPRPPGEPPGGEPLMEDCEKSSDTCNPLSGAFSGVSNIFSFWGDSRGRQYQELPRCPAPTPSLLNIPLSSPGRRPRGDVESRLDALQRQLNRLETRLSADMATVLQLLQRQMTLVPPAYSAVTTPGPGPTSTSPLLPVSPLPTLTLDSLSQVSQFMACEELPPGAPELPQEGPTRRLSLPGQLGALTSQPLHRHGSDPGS

As to `O=C(O)c1cc(Cl)cc(NCc2ccc(OCc3ccc(F)cc3)cc2)c1` [Compound 4r, 3-chloro-5-((4-((4-fluorobenzyl)oxy)benzyl)amino)benzoic acid], the “Ratio (5/50)” value on human PPARα (hPPARα) [1] (ratio of relative light unit (RLU) signal at 5 μM and 50 μM compound) is 0.11.

With `O=C(O)c1cccc(NCc2ccc(OCc3ccc(F)cc3F)cc2)c1` [Compound 4j, 3-((4-((2,4-difluorobenzyl)oxy)benzyl)amino)benzoic acid], the SI at human PPARα (hPPARα) [1] (SI = EC50 (PPARγ or PPARδ) / EC50 (PPARα)) is recorded as over 175. Also, at human PPARα (hPPARα) [1] (over hPPARγ and hPPARδ, no agonism up to 100 μM), the “selectivity for hPPARα over other PPAR isoforms” value is recorded as over 175 fold.

What is called EC50 is the concentration giving half of the maximal effect. For the molecule `Cc1cc(CNc2cccc(C(=O)O)c2)ccc1OCc1ccc(F)cc1` [Compound 4u, 3-((4-((4-fluorobenzyl)oxy)-3-methylbenzyl)amino)benzoic acid], the “hERG channel liability” value in [2] is given as “not considered a hERG liability”. Besides, the “improvement in binding affinity” value in data set [3] is ~ 38 fold. In addition, the “stability in liver microsomes” value in data set [4] and in data set [6] was “significantly improved stability” in each case. Also, the “time-dependent (irreversible) inhibition of major CYP450 isoforms” value in data set [5] is listed as “no signs of irreversible inhibition”. At human PPARα (hPPARα) [7], this molecule registered an EC50 of about 40 nM. Also, on PPARα, the “rescue of PPARα stability” value was found to be 3 fold.

On to `COc1ccc(COc2ccc(CNc3cccc(C(=O)O)c3)cc2)cc1` [Compound 4a, 3-((4-((4-methoxybenzyl)oxy)benzyl)amino)benzoic acid], for which, in data set [8], the “hepatomegaly (liver phenotype)” value is “lack signs of hepatomegaly”. In addition, the retinal vascular leakage result in data set [8] (Evans blue tracer) is given as “reduces retinal vascular leakage in diabetic rats to the range of the non-diabetic cohort”. For the same molecule, the “hERG channel liability” value in [2] is “low potency”.

The values are drawn from article PMC7365701 (Journal of medicinal chemistry, 2020).
